In this assay the test system is ARC7093 (AdeJ [G288S]) versus NCTC 13304. Nature of the assay: Ethidium bromide uptake (accumulation) assay. Type of assay: cell-based, A. baumannii. Particulars: over 20 min; 8 µM EtBr; P < 0.0001. An excerpt:
This AdeJ variant has been previously described in the context of carbapenem resistance due to the overexpression of the AdeJ pump, although the association was only made based on genotype, not phenotype ([31]). The efflux capacity of ARC7093 was, therefore, compared to NCTC 13304, a SUL-DUR-susceptible clinical isolate with wild-type AdeIJK, in an ethidium bromide accumulation assay. […] Therefore, the AdeJ (G288S) variant may play a role in susceptibility to SUL-DUR in Acinetobacter spp.
NCTC 13304 and ARC7093 were cultured overnight on Tryptic Soy Blood Agar plates. Single colonies were used to inoculate 2 mL of Mueller-Hinton Cation-adjusted Broth (MHBII) and grown overnight at 35°C with shaking. On the day of the experiment, the overnight culture was diluted 100-fold into a flask containing 20 mL of MHBII and grown under the same conditions to OD600 ~0.2. Two-mL aliquots of this logarithmic phase culture were centrifuged. The pellets were gently re-suspended in 2-mL of sterile phosphate-buffered saline (pH 7.0) containing 8 µM EtBr. The cells were transferred to a black-wall, clear-bottom 96-well microplate, and EtBr fluorescence (excitation—530 nm, emission—590 nm) was measured over a period of 20 min in a SpectraMax M5e plate reader (Molecular Devices). Statistical significance for the accumulation of ethidium bromide was determined using an unpaired t-test.

Turning to `CC[n+]1c(-c2ccccc2)c2cc(N)ccc2c2ccc(N)cc21` [ethidium bromide], the “accumulation of ethidium bromide in ARC7093 versus NCTC 13304” value is “significantly lower”.

Source of the values: PMC10648852, “Molecular drivers of resistance to sulbactam-durlobactam in contemporary clinical isolates of Acinetobacter baumannii” (Antimicrobial Agents and Chemotherapy, 2023).
